# From ChEMBL document CHEMBL4152187, “Plant-derived mPGES-1 inhibitors or suppressors: A new emerging trend in the search for small molecules to combat inflammation” (Eur J Med Chem, 2018)
# How the values were obtained:
# Prostaglandin E synthase [1] = target: T1, Prostaglandin E synthase (Homo sapiens, UniProt O14684); experiment: Inhibition of mPGES1 in human A549 cell microsomal membrane using pGH2 as substrate pretreated for 15 mins followed by substrate addition and measured after 1 min by RP-HPLC method
# T1 sequence (O14684 whole entry): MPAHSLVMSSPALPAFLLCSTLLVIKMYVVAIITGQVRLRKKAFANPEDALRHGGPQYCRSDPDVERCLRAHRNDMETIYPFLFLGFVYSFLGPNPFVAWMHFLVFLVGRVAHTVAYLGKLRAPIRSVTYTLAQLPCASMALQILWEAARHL
# J774 [2] = experiment: Inhibition of LPS-stimulated mPGES1 expression in mouse J774 cells; assay type: functional, cell-based
# [3] = target: Prostaglandin G/H synthase 2 (Homo sapiens) (UniProt P35354); experiment: Inhibition of COX2 in human A375 cells assessed as reduction in PGE2 production up to 20 uM by immunoblot analysis relative to control
# [4] = target: Prostaglandin G/H synthase 2 (Homo sapiens) (UniProt P35354); experiment: Inhibition of COX2 in human Hs294 cells assessed as reduction in PGE2 production up to 20 uM by immunoblot analysis relative to control
# [5] = target: T2, Prostaglandin E synthase (Homo sapiens) (UniProt O14684); experiment: Inhibition of mPGES1 in human HeLa cells assessed as reduction in PGE2 production at 50 uM by enzyme immunoassay relative to control; assay type: cell-based
# T2 sequence (whole entry): T1 sequence (O14684 whole entry)
# Rattus norvegicus [6] = experiment: Antiinflammatory activity against carrageenan-induced pleurisy in rat assessed as reduction in PGE2 level at 3.6 mg/kg, ip relative to control; assay type: functional; parameters: scale not given: the % may be the effect or the level left
# Rattus norvegicus [7] = experiment: Antiinflammatory activity against carrageenan-induced pleurisy in rat assessed as reduction in cell infiltration at 3.6 mg/kg, ip relative to control; assay type: functional; parameters: scale not given: the % may be the effect or the level left
# Rattus norvegicus [8] = experiment: Antiinflammatory activity against carrageenan-induced pleurisy in rat assessed as reduction in exudate formation at 3.6 mg/kg, ip relative to control; assay type: functional; parameters: scale not given: the % may be the effect or the level left
# Prostaglandin E synthase [9] = target: T1, Prostaglandin E synthase; experiment: Inhibition of mPGES1 in human A549 cell microsomes
# J774 [10] = experiment: Inhibition of LPS-induced mPGES1 mRNA expression in mouse J774 cells at 100 uM measured after 6 to 24 hrs by qRT-PCR analysis; assay type: functional
# Chain of Prostaglandin G/H synthase 2 (Homo sapiens) (P35354 whole entry, looked up): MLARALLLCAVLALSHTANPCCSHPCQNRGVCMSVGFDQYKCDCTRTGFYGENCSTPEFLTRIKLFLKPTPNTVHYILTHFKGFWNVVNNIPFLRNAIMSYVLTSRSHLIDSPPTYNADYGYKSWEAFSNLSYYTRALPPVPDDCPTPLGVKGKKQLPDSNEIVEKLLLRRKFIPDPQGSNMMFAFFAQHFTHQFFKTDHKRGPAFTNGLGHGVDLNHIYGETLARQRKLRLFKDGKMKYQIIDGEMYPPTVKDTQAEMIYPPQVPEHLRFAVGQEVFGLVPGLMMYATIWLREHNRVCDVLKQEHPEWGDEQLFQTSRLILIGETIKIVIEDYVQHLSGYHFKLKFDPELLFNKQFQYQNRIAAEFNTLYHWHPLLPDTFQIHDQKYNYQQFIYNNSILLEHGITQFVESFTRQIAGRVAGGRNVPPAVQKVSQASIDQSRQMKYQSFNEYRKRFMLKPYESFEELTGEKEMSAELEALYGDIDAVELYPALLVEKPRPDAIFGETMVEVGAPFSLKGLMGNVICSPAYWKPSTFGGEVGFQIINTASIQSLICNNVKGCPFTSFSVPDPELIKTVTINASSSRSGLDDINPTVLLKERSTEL
smiles,measurement,setting,value
CCCCCc1cc(OC(=O)c2c(O)cc(OC)cc2CCCCC)cc(O)c1C(=O)O,IC50,Prostaglandin E synthase [1],430 nM
CC(=O)O[C@@H]1CC[C@@]2(C)[C@@H](CC[C@]3(C)[C@@H]2CC=C2[C@@H]4[C@@H](C)[C@H](C)CC[C@]4(C)CC[C@]23C)[C@@]1(C)C(=O)O,IC50,Prostaglandin E synthase [1],≥ 30000 nM
COc1cc(C[C@@H]2COC(=O)[C@]2(O)Cc2ccc(O)c(OC)c2)ccc1O,IC50,J774 [2],14 µM
CCCCCC(=O)Cc1cc(O)cc(O)c1C(=O)Oc1cc(O)c(C(=O)O)c(CCCCC)c1,IC50,Prostaglandin E synthase [1],400 nM
C=C(C)[C@H](CC=C(C)C)C[C@]12C[C@H](CC=C(C)C)C(C)(C)[C@](CC=C(C)C)(C(=O)C(C(=O)c3ccc(O)c(O)c3)=C1O)C2=O,IC50,Prostaglandin E synthase [1],300 nM
COc1ccc2cc3[n+](cc2c1OC)CCc1cc2c(cc1-3)OCO2,inhibition,[3],15 to 75%
same,inhibition,[4],16 to 63%
same,inhibition,[5],71.9%
C[C@H]1[C@H](C)CC[C@]2(C)CC[C@]3(C)C(=CC(=O)[C@@H]4[C@@]5(C)CC[C@@H](O)[C@](C)(C(=O)O)[C@@H]5CC[C@]43C)[C@H]12 [11-KETO BOSWELLIC ACID],IC50,Prostaglandin E synthase [1],10000 nM
CCc1oc(=O)c(Cc2c(O)c(CC=C(C)C)c(O)c(C(C)=O)c2O)c(O)c1C [ARZANOL],Activity,Rattus norvegicus [6],47%
same,Activity,Rattus norvegicus [7],48%
same,Activity,Rattus norvegicus [8],59%
COC(=O)c1c(C)cc(OC(=O)c2c(C)cc(O)c(C=O)c2O)c(C)c1O [ATRANORIN],IC50,Prostaglandin E synthase [1],1150 nM
COc1cc(/C=C/C(=O)CC(=O)/C=C/c2ccc(O)c(OC)c2)ccc1O [CURCUMIN],IC50,Prostaglandin E synthase [1],300 nM
CCCCCCCCCCCC1=C(O)C(=O)C=C(O)C1=O [EMBELIN],IC50,Prostaglandin E synthase [9],200 nM
O=C(O[C@@H]1Cc2c(O)cc(O)cc2O[C@@H]1c1cc(O)c(O)c(O)c1)c1cc(O)c(O)c(O)c1 [EPIGALOCATECHIN GALLATE],IC50,Prostaglandin E synthase [1],1800 nM
COc1cc(-c2oc3cc(O)cc(O)c3c(=O)c2O)ccc1O [ISORHAMNETIN],inhibition at 100 µM,J774 [10],> 50%
O=c1c(O)c(-c2ccc(O)cc2)oc2cc(O)cc(O)c12 [KAEMPFEROL],inhibition at 100 µM,J774 [10],> 50%
